Experimental findings from PMC7383220 (BioFactors (Oxford, England), 2018) are described below.

The target of one data set is T1, UGT1A1 (Homo sapiens, UniProt P22309).
T1 sequence (P22309 26-533): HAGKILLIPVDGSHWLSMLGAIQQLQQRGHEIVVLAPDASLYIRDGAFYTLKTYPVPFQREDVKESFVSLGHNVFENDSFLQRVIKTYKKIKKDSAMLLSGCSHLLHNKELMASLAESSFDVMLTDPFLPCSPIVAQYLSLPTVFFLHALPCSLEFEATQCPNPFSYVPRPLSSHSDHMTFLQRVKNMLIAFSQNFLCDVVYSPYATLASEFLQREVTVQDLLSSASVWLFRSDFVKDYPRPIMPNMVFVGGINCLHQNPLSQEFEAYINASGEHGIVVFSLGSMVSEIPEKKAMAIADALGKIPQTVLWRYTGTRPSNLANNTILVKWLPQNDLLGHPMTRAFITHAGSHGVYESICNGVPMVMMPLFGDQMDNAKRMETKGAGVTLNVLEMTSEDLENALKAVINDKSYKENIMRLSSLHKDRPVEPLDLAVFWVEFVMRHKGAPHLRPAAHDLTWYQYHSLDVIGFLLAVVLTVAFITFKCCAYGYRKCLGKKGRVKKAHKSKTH
It counts as biochemical. As to conditions: for Effect on glucuronidation of BDMC by UGT1A1 enzyme: inhibitor 5 and 20 μM; for Effect of UGT1A1 inhibitors on rates of BDMC-O-glucuronidation: nilotinib 10 μM, protopanaxatriol 500 μM, glycyrrhetinic acid 20 μM.

Another data set deals with T2, HeLa1A1 cell lysate (Homo sapiens, UniProt P22309).
T2 sequence (P22309 26-533): T1 sequence (P22309 26-533)
The class given is biochemical.

The next data set deals with HeLa1A1 cells. Put plainly: BDMC-O-glucuronide excretion experiments in HeLa1A1 cells. It counts as cell-based, human. As to conditions: for Increase of intracellular levels of BDMC-O-glucuronide / Decrease of BDMC-O-glucuronide excretion: inhibitor 5 and 20 μM, 5 μM BDMC, versus control; for Increase of intracellular levels of BDMC-O-glucuronide: cells collected at 2 h.

Substrate in data set [1]: O=C(/C=C/c1ccc(O)cc1)CC(=O)/C=C/c1ccc(O)cc1
Kind of data set: cells, lysate or membranes named. As to conditions: pH 7.4, 37.0 °C.

[2] abbreviates: other: UGT1A1 enzyme supplemented with UDPGA.
Setting [3] is: other: HeLa1A1 cell lysate supplemented with UDPGA.

Read-outs that look alike come from different tables or passages of the source.

For the molecule `CN(C)C(=O)CCSC(SCCC(=O)O)c1cccc(/C=C/c2ccc3ccc(Cl)cc3n2)c1` (stereo not shown) [MK-571], the “Effect on glucuronidation of BDMC by UGT1A1 enzyme” value at UGT1A1 is on record as “inhibit”. In addition, on HeLa1A1 cell lysate (inhibitor 5 and 20 μM), the “Effect on glucuronidation of BDMC by HeLa1A1 cell lysate” value (shortened to “Effect … by HeLa1A1 cell lysate”) is recorded as “inhibit”. The “Effect on efflux clearance of BDMC-O-glucuronide” value in the data set on HeLa1A1 cells (HeLa1A1 cells, ER/Ci) is listed as “reduction”. For the same molecule, in the data set with HeLa1A1 cells, the “Increase of intracellular levels of BDMC-O-glucuronide” value is 27.1–32.6% and the “Decrease of BDMC-O-glucuronide excretion” value is given as 6.2~61.6%.
Take `CCCCC/C=C\C\C=C/C=C/C=C/[C@@H](SC[C@H](NC(=O)CC[C@H](N)C(=O)O)C(=O)NCC(=O)O)[C@@H](O)CCCC(=O)O` [LTC4, leukotriene C4]: on UGT1A1 (LTC4 0.05 and 0.2 μM), the “Effect on glucuronidation of BDMC by UGT1A1” value is on record as “no influences”. Besides, the “Effect … by HeLa1A1 cell lysate” value at HeLa1A1 cell lysate (LTC4 0.05 and 0.2 μM) is given as “no influences”. Further, in the data set with HeLa1A1 cells (LTC4 0.05 and 0.2 μM), the “Effect on excretion of BDMC-O-glucuronide” value is given as “did not show any effects” and the “Effect on formation of BDMC-O-glucuronide” value is given as “did not show any effects”.
`CC(C)=CCC[C@](C)(O)[C@H]1CC[C@]2(C)[C@@H]1[C@H](O)C[C@@H]1[C@@]3(C)CC[C@H](O)C(C)(C)[C@@H]3[C@@H](O)C[C@]12C` [protopanaxatriol]: the “Effect of UGT1A1 inhibitors on rates of BDMC-O-glucuronidation” value at UGT1A1 is on record as “altered”.
Still for that read-out and setting: under `CC1(C)[C@@H](O)CC[C@]2(C)[C@H]3C(=O)C=C4[C@@H]5C[C@@](C)(C(=O)O)CC[C@]5(C)CC[C@@]4(C)[C@]3(C)CC[C@@H]12` [glycyrrhetinic acid] stands “altered”.
As to `OCCN(CCO)c1nc(N2CCCCC2)c2nc(N(CCO)CCO)nc(N3CCCCC3)c2n1` [DIPY, dipyridamole], the “Effect on glucuronidation of BDMC by UGT1A1 enzyme” value on UGT1A1 is “inhibit”. The “Effect … by HeLa1A1 cell lysate” value at HeLa1A1 cell lysate (inhibitor 5 and 20 μM) is reported as “inhibit”. Further, in the data set on HeLa1A1 cells, the “Increase of intracellular levels of BDMC-O-glucuronide” value is on record as 20.5–25.4% and the “Decrease of BDMC-O-glucuronide excretion” value is recorded as 8.4–36.5%.
Take `Cc1cn(-c2cc(NC(=O)c3ccc(C)c(Nc4nccc(-c5cccnc5)n4)c3)cc(C(F)(F)F)c2)cn1` [nilotinib]: the “Effect of UGT1A1 inhibitors on rates of BDMC-O-glucuronidation” value at UGT1A1 is “altered”.

B1: UGT1A1 (Homo sapiens) (protein)
chain: T1 sequence (P22309 26-533)
For B1, in data set [1] (setting [2]), the Km stood at 5.99 ± 0.83 µM, the Vmax came to 0.00141 µmol/min/mg and the Vmax/Km worked out at 235 µL/min/mg.

B2: HeLa1A1 cell lysate (Homo sapiens) (protein)
chain: T1 sequence (P22309 26-533)
Regarding B2, in data set [1] (setting [3]), the Km amounted to 7.33 ± 0.83 µM, the Vmax was 0.0012 ± 4.99e-05 µmol/min/mg and the Vmax/Km is 164 ± 19.8 µL/min/mg.
